Holding throughout (experiment): DTP human tumour cell line panel, 48 h
Assay [1] relates to HS 578T breast.
Assay [2] concerns IGROV1 ovarian.
The subject of assay [3] is K-562 leukemia.
Assay [4] deals with LOX IMVI melanoma.
Assay [5] has as its system MCF7 breast.
In assay [6] the test system is MDA-MB-231 breast.
Assay [7] concerns MDA-N.
In assay [8] the test system is NCI-H522 lung.
Assay [9] has as its system SF-295 CNS.
The subject of assay [10] is SNB-19 CNS.
For assay [11], the system named is SW-620 colon.
The test system of assay [12] is CCRF-CEM leukemia.
The test system of assay [13] is OVCAR-3 ovarian.
The test system of assay [14] is OVCAR-4 ovarian.
In assay [15] the test system is SR leukemia.

One may read the TGI as the concentration at which net growth stops. Low values mean greater sensitivity of the cells, high ones lower sensitivity of the cells.

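Tested at 5 concentrations; 48 h exposure; 96-well plates; endpoints linearly interpolated, else capped at highest concentration. Definition used: TGI = concentration required for complete inhibition of growth.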

In the case of `CCOC(=O)C1=NOC2(C=C(Br)C(=O)C(Br)=C2)C1`, the TGI in assay [1] came to 68.1 µM; in [2] it was 20.6 µM; in assay [3] it was 6.42 µM; in [4], 7.63 µM; in [5] it was 11.1 µM; in [6] it was 21.9 µM. The TGI in assay [7] amounted to 3.39 µM; in assay [8] it was 1.34 µM; in assay [9], 32.4 µM; in assay [10] it was 40 µM; in assay [11], 2.77 µM.
Take `CCC(CCCN)Nc1cc(OC)cc2c(C)ccnc12` (centres undefined): the TGI stood at 52.6 µM in [12]; 27.6 µM in assay [1]; 36.6 µM in assay [2]; 39.5 µM in assay [3]; 31.6 µM in [4]; 29.3 µM in assay [5]. Further, the TGI in assay [6] is 28.5 µM; in assay [7], 34.1 µM; in assay [13] it was 34.7 µM; in assay [14], 39 µM; in [9] it was 32.9 µM; in assay [10], 27.9 µM. Besides, the TGI in [15] is 31.6 µM; in [11], 36.9 µM.
For `Nc1n[n+](CC(=O)c2ccccc2)c2sc(-c3ccccc3)nn12`, the total growth inhibition concentration (TGI) in assay [12], in assay [1], in assay [2], in assay [3], in assay [4] and in assay [5] was more than 100 µM throughout. The TGI in assay [6], in assay [7], in assay [8], in assay [13], in assay [14] and in [9] was more than 100 µM each time. Also, the TGI in assay [10] and in assay [11] was more than 100 µM each time.
For the compound `O=C1CCCN1C(=O)CS(=O)(=O)c1ccccc1`, the TGI in assay [12], in assay [1], in [2], in assay [3], in assay [4] and in assay [6] was more than 100 µM each time. Also, the TGI in assay [7], in [8], in assay [13], in assay [14], in [9] and in assay [10] was more than 100 µM each time. Moreover, the TGI in assay [15] and in assay [11] was more than 100 µM in each case.
Turning to `COC1/C=C/C(C)C(C(C)C(OC)C(C)CCC(=O)C(C)C(C/C=C/N(C)C=O)OC)OC(=O)C=CC2OC2(C)CC(OC)C(OC)C2=CC(=O)O[C@@H](C(C)C(OC)CC(OC)/C=C/C(C)C(O)C1)[C@H]2O` (some centres undefined), the TGI in assay [12] was more than 1.24 µM; in assay [1], 0.0351 µM; in assay [2], 0.00369 µM; in assay [4], 0.00617 µM; in assay [5], more than 0.286 µM; in assay [6], 0.0197 µM. The TGI in assay [7] was 0.103 µM; in assay [8], 0.0296 µM; in assay [13], 0.0341 µM; in [14] it was more than 1.24 µM; in [9], 0.0236 µM; in [10] it was 0.0316 µM.
For `C=C(Br)CNC(=O)Nc1ccc(Cl)c(Cl)c1`, the TGI in [12] is 45.1 µM; in assay [1] it was 54.3 µM; in [2] it was 36.6 µM; in assay [3], 90.5 µM; in assay [4] it was 43.6 µM; in assay [6], 32.9 µM. For the same compound, the TGI is more than 100 µM in assay [7]; 57.4 µM in assay [8]; 38.8 µM in [13]; more than 100 µM in assay [14]; 67.2 µM in assay [9]; 73.5 µM in assay [10]. Also, the TGI in assay [15] is 62.9 µM; in [11] it was more than 100 µM.
Take `CCOC(=O)c1c(C)nc2c1c(CN(C)C)c(O)c1[nH]c(C)c(C)nc12`: the TGI was 38.3 µM in assay [12]; 70.8 µM in [1]; more than 100 µM in [2]; more than 100 µM in assay [3]; 37.8 µM in [4]; 52.1 µM in [5]. Moreover, the concentration for total growth inhibition (TGI) was 54.7 µM in [7]; 42.7 µM in [8]; 85.7 µM in [13]; more than 100 µM in assay [14]; 62.2 µM in assay [9]; more than 100 µM in assay [10]. In addition, the results for the TGI in assay [15] and in assay [11] were 51.5 µM and 95.2 µM, respectively.
`COc1ccc(C2SCC(=O)N2c2ccc(-c3ccc(-n4c(-c5ccccc5)nc5ccccc5c4=O)cc3)cc2)cc1OC` (centres undefined): the TGI was 92.5 µM in assay [12]; more than 100 µM in assay [1]; more than 100 µM in assay [2]; 96 µM in assay [3]; 51.5 µM in assay [4]; more than 100 µM in [5]. Further, the TGI was more than 100 µM in assay [6]; more than 100 µM in assay [7]; more than 100 µM in assay [13]; more than 100 µM in [14]; 33.5 µM in [9]; more than 100 µM in assay [10]. Also, the TGI in assay [15] and in assay [11] was more than 100 µM in each case.
On to `O=S1(=O)OCCOS(=O)(=O)C1(F)Br`, for which the TGI in [12], in assay [1], in assay [3], in assay [4], in assay [5] and in assay [7] was more than 100 µM in each case. The TGI in assay [8], in assay [13], in assay [14], in assay [9], in [10] and in [15] was more than 100 µM in each case. In assay [11], this compound registered a TGI of more than 100 µM.
In the case of `CC(=O)Nc1ccc(C(O)/C(=N/N)c2nc3ccc(Cl)cc3[nH]c2=O)cc1` (centres undefined), the TGI in assay [12], in assay [1], in assay [2], in assay [4], in assay [5] and in [6] was more than 100 µM each time. Moreover, the TGI in assay [7], in assay [8], in [13], in assay [14], in assay [9] and in [10] was more than 100 µM throughout. Besides, the TGI in assay [15] and in assay [11] was more than 100 µM each time.

These data come from PubChem BioAssay (NCI).
